According to patent publication US12539292B2, “BRM targeting compounds and associated methods of use” (Arvinas Operations, Inc., priority 2018, dated 2026):

Molecular target: T1, BRM (Homo sapiens, UniProt P51531)
T1 construct: In-Cell Western Screen of BRM Degradation in SW1573 Cells; endogenous in cells; host or cells: SW1573
Assay: In-cell Western screen of BRM degradation in SW1573 cells (Dmax and DC50)
Type: cell-based
Details: BRM degradation, SW1573 cells; for DC50: read-out: DC50; for Dmax: read-out: Dmax (% degraded)
Summary of the method: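 SW1573, overnight cpd exposure (18-20 h), 0.1% DMSO final. PFA fix, 0.5% Triton permeabilization, block; IR secondaries at 800/680 nm. Odyssey read → Dmax, DC50.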

T1 sequence (P51531 whole entry): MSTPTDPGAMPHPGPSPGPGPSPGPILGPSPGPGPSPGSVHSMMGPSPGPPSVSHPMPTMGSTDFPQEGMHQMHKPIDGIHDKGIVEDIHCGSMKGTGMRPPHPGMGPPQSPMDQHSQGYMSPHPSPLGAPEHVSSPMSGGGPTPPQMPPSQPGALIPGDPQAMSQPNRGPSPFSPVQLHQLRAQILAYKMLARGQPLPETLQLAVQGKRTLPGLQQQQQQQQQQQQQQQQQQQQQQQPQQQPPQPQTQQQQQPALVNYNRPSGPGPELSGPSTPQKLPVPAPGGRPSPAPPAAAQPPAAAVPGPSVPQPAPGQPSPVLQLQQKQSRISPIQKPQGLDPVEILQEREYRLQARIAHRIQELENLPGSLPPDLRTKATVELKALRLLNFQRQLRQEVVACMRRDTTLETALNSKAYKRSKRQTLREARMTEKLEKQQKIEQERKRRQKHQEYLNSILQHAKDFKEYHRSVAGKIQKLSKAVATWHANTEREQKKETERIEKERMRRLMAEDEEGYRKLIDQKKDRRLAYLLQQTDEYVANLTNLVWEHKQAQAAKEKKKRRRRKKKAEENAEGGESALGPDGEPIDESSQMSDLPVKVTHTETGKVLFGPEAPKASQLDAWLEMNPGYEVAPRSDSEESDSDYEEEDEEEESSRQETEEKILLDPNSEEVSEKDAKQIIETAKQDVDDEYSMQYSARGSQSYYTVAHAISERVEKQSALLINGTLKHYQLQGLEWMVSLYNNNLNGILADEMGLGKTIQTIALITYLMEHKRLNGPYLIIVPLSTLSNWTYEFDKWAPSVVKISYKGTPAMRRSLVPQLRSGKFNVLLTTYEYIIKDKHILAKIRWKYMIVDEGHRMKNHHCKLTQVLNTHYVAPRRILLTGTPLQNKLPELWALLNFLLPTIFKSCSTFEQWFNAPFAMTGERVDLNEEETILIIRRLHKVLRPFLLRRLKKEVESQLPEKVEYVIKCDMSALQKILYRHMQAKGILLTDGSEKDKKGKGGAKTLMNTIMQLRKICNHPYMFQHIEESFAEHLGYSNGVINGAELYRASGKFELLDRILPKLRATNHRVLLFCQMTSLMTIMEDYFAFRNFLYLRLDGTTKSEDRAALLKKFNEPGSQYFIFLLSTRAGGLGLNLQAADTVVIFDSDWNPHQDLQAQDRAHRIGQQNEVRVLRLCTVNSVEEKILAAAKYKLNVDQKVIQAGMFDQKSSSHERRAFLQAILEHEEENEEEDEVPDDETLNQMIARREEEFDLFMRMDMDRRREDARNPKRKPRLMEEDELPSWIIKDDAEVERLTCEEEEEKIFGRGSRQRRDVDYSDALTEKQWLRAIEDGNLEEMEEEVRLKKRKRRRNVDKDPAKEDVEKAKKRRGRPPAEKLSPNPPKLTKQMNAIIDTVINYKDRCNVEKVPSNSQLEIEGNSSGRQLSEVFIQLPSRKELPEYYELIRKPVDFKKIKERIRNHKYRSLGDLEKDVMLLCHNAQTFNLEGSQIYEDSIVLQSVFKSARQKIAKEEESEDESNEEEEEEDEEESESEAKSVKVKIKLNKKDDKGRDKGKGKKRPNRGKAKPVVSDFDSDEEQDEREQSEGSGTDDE

Compound | DC50 [nM] | Dmax [%] | Dmax (%) (% degraded) (when tested at the top concentration of between 0.3 and 10 μM)
Cc1ncsc1-c1ccc([C@H](C)NC(=O)[C@@H]2C[C@@H](O)CN2C(=O)[C@@H](c2cc(N3CCC(CN4CCC(O[C@H]5C[C@H](C#CC(C)N6CCOC7(CCN(c8cc(-c9ccccc9O)nnc8N)CC7)C6)C5)CC4)CC3)no2)C(C)C)cc1 (stereo partly drawn) [compound 707, (2S,4R)-1-((2R)-2-(3-(4-((4-((1r,3r)-3-(3-(9-(3-amino-6-(2-hydroxyphenyl)pyridazin-4-yl)-1-oxa-4,9-diazaspiro[5.5]undecan-4-yl)but-1-yn-1-yl)cyclobutoxy)piperidin-1-yl)methyl)piperidin-1-yl)isoxazol-5-yl)-3-methylbutanoyl)-4-hydroxy-N-((S)-1-(4-(4-methylthiazol-5-yl)phenyl)ethyl)pyrrolidine-2-carboxamide] | < 2.5 | > 75 | 
Cc1ncsc1-c1ccc([C@H](C)NC(=O)[C@@H]2C[C@@H](O)CN2C(=O)[C@@H](c2cc(N3CCC(CN4CCC(O[C@H]5C[C@H](Oc6cc(N7C8CCC7CN(c7cc(-c9ccccc9O)nnc7N)C8)ccn6)C5)CC4)CC3)no2)C(C)C)c(N)c1 [compound 708, (2S,4R)-N-((S)-1-(2-amino-4-(4-methylthiazol-5-yl)phenyl)ethyl)-1-((2R)-2-(3-(4-((4-((1r,3r)-3-((4-(3-(3-amino-6-(2-hydroxyphenyl)pyridazin-4-yl)-3,8-diazabicyclo[3.2.1]octan-8-yl)pyridin-2-yl)oxy)cyclobutoxy)piperidin-1-yl)methyl)piperidin-1-yl)isoxazol-5-yl)-3-methylbutanoyl)-4-hydroxypyrrolidine-2-carboxamide] | < 2.5 | > 75 | 
CC(C)[C@@H](C(=O)N1C[C@H](O)C[C@H]1C(=O)N[C@@H](C)c1ccc(C2(F)CC2)cc1)c1cc(N2CCC(CN3CCC(O[C@H]4C[C@H](Oc5cc(N6C7CCC6CN(c6cc(-c8ccccc8O)nnc6N)C7)ccn5)C4)CC3)CC2)no1 [compound 713, (2S,4R)-1-((2R)-2-(3-(4-((4-((1r,3r)-3-((4-(3-(3-amino-6-(2-hydroxyphenyl)pyridazin-4-yl)-3,8-diazabicyclo[3.2.1]octan-8-yl)pyridin-2-yl)oxy)cyclobutoxy)piperidin-1-yl)methyl)piperidin-1-yl)isoxazol-5-yl)-3-methylbutanoyl)-N-((S)-1-(4-(1-fluorocyclopropyl)phenyl)ethyl)-4-hydroxypyrrolidine-2-carboxamide] | 2.5 to 10 | > 75 | 
Cc1ncsc1-c1ccc([C@H](C)NC(=O)[C@@H]2C[C@@H](O)CN2C(=O)[C@H](c2cc(N3CCN(C(C)(C)C4CCN(C[C@H]5C[C@H](Oc6cc(N7C8CCC7CN(c7cc(-c9ccccc9O)nnc7N)C8)ccn6)C5)CC4)CC3)no2)C(C)C)cc1 [compound 714, (2S,4R)-1-((2S)-2-(3-(4-(2-(1-(((1r,3r)-3-((4-(3-(3-amino-6-(2-hydroxyphenyl)pyridazin-4-yl)-3,8-diazabicyclo[3.2.1]octan-8-yl)pyridin-2-yl)oxy)cyclobutyl)methyl)piperidin-4-yl)propan-2-yl)piperazin-1-yl)isoxazol-5-yl)-3-methylbutanoyl)-4-hydroxy-N-((S)-1-(4-(4-methylthiazol-5-yl)phenyl)ethyl) pyrrolidine-2-carboxamide] | > 30 |  | 
Cc1ncsc1-c1ccc([C@H](C)NC(=O)[C@@H]2C[C@@H](O)CN2C(=O)[C@@H](c2cc(N3CCN(C(C)(C)C4CCN(C[C@H]5C[C@H](Oc6cc(N7C8CCC7CN(c7cc(-c9ccccc9O)nnc7N)C8)ccn6)C5)CC4)CC3)no2)C(C)C)cc1 [compound 715, (2S,4R)-1-((2R)-2-(3-(4-(2-(1-(((1r,3r)-3-((4-(3-(3-amino-6-(2-hydroxyphenyl)pyridazin-4-yl)-3,8-diazabicyclo[3.2.1]octan-8-yl)pyridin-2-yl)oxy)cyclobutyl)methyl)piperidin-4-yl)propan-2-yl)piperazin-1-yl)isoxazol-5-yl)-3-methylbutanoyl)-4-hydroxy-N-((S)-1-(4-(4-methylthiazol-5-yl)phenyl)ethyl)pyrrolidine-2-carboxamide] | < 2.5 | > 75 | 
Cc1ncsc1-c1ccc([C@H](C)NC(=O)[C@@H]2C[C@@H](O)CN2C(=O)[C@@H](c2cc(N3CCC(CN4CCC(O[C@H]5C[C@H](Oc6cc(N7CCOC8(CCN(c9cc(-c%10ccccc%10O)nnc9N)CC8)C7)ccn6)C5)CC4)CC3)no2)C(C)C)cc1 [compound 716, (2S,4R)-1-((R)-2-(3-(4-((4-((1r,3r)-3-((4-(9-(3-amino-6-(2-hydroxyphenyl)pyridazin-4-yl)-1-oxa-4,9-diazaspiro[5.5]undecan-4-yl)pyridin-2-yl)oxy)cyclobutoxy)piperidin-1-yl)methyl)piperidin-1-yl)isoxazol-5-yl)-3-methylbutanoyl)-4-hydroxy-N-((S)-1-(4-(4-methylthiazol-5-yl)phenyl)ethyl)pyrrolidine-2-carboxamide] | < 2.5 | > 75 | 
(2S,4R)-1-((2R)-2-(3-(2-(4-((1r,3R)- 3-((4-(3-(3-amino-6-(2- hydroxyphenyl)pyridazin-4-yl)-3,8- diazabicyclo[3.2.1]octan-8- yl)pyridin-2- yl)oxy)cyclobutoxy)piperidin-1- yl)ethoxy)isoxazol-5-yl)-3- methylbutanoyl)-4-hydroxy-N-(4-(4- methylthiazol-5- yl)benzyl)pyrrolidine-2-carboxamide [compound 146] | < 2.5 |  | A (A > 75)
